# Patent US12433882B2, “Treatments for amyotrophic lateral sclerosis using dazucorilant” (Corcept Therapeutics Incorporated, priority 2022, dated 2025)
# What was measured:
# GR [1] = target: T1, GR (Homo sapiens, UniProt P04150); assay: Dexamethasone-induced TAT activity in primary hepatocytes from humans; assay type: cell-based; set-up: endogenous in cells; host or cells: primary hepatocytes from humans
# T1 sequence (P04150 1-777): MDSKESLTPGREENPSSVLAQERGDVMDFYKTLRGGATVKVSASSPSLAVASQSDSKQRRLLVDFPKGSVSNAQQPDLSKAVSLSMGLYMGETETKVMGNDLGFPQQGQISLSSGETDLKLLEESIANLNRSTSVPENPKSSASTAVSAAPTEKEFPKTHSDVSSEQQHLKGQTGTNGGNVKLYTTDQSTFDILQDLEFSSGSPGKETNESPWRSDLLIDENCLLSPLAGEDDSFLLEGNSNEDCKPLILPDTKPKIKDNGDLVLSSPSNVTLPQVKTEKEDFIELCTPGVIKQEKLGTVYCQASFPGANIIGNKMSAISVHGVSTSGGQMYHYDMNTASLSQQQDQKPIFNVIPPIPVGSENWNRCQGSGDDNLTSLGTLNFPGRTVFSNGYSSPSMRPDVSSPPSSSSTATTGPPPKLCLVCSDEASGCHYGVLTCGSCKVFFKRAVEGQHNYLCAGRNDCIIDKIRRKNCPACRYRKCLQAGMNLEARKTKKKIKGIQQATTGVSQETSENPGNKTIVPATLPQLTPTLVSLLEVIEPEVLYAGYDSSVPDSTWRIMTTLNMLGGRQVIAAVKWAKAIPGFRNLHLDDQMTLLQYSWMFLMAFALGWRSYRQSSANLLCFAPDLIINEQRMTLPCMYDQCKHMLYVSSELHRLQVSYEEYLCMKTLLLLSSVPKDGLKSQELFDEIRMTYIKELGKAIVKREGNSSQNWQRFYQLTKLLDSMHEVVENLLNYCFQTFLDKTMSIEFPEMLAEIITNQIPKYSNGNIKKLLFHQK
# Procedure: Dazucorilant is selective for GR over other nuclear hormone receptors, and a range of other receptors, enzymes, and ion channels. For example, dazucorilant has high selectivity for GR relative to the progesterone receptor (PR), androgen receptor, and estrogen receptor, showing no significant binding to these receptors at a concentration of 10 μM (0%, 1.5% and […], respectively).
# GR [2] = target: T2, GR (Rattus norvegicus, UniProt P06536); assay: Inhibition of dexamethasone effect on TAT activity, rat hepatoma cell line; assay type: cell-based; conditions: read-out: Kc, inhibition of dexamethasone effects on TAT activity
# T2 construct: endogenous in cells
# T2 sequence (P06536 1-795): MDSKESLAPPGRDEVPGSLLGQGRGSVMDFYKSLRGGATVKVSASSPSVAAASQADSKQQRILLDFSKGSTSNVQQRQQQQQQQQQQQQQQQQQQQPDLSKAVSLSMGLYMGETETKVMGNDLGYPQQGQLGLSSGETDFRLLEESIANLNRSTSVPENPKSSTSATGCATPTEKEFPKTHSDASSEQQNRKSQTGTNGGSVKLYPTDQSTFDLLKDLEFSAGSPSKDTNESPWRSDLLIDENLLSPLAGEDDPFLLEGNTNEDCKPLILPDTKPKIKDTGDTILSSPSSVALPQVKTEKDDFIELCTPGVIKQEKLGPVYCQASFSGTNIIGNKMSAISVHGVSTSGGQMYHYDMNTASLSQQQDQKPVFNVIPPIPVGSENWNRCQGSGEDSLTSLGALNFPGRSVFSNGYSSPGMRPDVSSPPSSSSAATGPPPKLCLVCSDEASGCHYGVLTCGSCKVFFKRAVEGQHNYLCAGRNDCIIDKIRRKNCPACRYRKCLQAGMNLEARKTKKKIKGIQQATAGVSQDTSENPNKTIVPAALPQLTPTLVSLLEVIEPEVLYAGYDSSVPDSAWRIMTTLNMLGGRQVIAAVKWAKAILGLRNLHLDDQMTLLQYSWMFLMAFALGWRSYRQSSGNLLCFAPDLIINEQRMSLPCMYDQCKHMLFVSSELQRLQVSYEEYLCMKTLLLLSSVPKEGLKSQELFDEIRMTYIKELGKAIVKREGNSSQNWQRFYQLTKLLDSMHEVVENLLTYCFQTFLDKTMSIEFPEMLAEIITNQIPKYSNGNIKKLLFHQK
# GR [3] = target: T1, GR; assay: Inhibition of dexamethasone effect on TAT activity, human liver carcinoma cell line; assay type: cell-based; set-up: endogenous in cells; host or cells: human liver carcinoma cell line (probably HepG2, inferred); conditions: read-out: Ki, inhibition of dexamethasone effects on TAT activity
# Excerpt: The term “glucocorticoid receptor modulator” (GRM) refers to any compound which modulates glucocorticoid binding to GR, or which modulates any biological response associated with the binding of GR to an agonist. For example, a GRM that acts as an agonist, such as dexamethasone, increases the activity of tyrosine aminotransferase (TAT) in HepG2 cells (a human liver hepatocellular carcinoma cell line; ECACC, UK). A GRM that acts as an antagonist, such as mifepristone, decreases the activity of tyrosine aminotransferase (TAT) in HepG2 cells.
# [4] = Quantitative whole-body autoradiography (QWBA) study in rats; assay type: in vivo
# Procedure: The in vivo distribution of dazucorilant was determined in a quantitative whole-body autoradiography (QWBA) study in rats. Following a single oral administration of ^14C-dazucorilant to male and female rats, radioactivity was steadily absorbed, with maximal tissue concentrations generally occurring at around 12 hours post-dose.
# [5] = first 24 hours after dosing, single oral dose, rats
smiles,measurement,setting,value
"O=C(c1ccccn1)[C@]12Cc3cnn(-c4ccc(F)cc4)c3C=C1CCN(S(=O)(=O)c1ccc(C(F)(F)F)cc1)C2 [dazucorilant, (R)-(1-(4-fluorophenyl)-6-((4-(trifluoromethyl)phenyl)sulfonyl)-4,4a, 5,6,7,8-hexahydro-1-H-pyrazolo[3,4-g]isoquinolin-4a-yl) (pyridin-2-yl)methanone]",dexamethasone-induced increase in TAT activity,GR [1],prevented the dexamethasone-induced increase in TAT activity
same,Ki,GR [2],4.2 nM
same,Ki,GR [3],14 nM
same,"Tissue:blood ratio, brain",[4]; [5],> 0.1
same,"Tissue:blood ratio, spinal cord",[4]; [5],> 0.1
same,time of maximal tissue concentrations of radioactivity,"[4]; single oral administration, male and female rats, post-dose",around 12 hours
